The values below come from PMC11577813, “Eurasian spruce bark beetle detects lanierone using a highly expressed specialist odorant receptor, present in several functional sensillum types” (BMC Biology, 2024).

This assay concerns the target T1, ItypOR36 (with ItypOrco) (Ips typographus, UniProt A0AAU6S471).
T1 construct: gene OR36; heteromeric OR/Orco ligand-gated ion channel; GenBank id is for ItypOR36; with Odorant receptor coreceptor
T1 sequence (A0AAU6S471 1-390): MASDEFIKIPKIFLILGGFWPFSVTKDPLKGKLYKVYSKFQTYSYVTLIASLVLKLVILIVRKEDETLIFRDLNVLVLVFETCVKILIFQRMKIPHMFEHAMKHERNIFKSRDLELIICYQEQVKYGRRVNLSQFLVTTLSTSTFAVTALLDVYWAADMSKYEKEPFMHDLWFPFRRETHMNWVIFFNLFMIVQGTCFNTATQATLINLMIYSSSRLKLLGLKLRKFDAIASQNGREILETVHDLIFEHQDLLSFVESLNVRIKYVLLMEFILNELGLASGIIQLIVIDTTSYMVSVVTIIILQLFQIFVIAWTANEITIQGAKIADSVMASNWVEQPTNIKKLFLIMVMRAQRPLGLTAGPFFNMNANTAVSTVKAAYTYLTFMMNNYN
Nature of the assay: Fluo4-AM calcium fluorescence in HEK293 cells, dose-response. Particulars: agonist; co-expressed ItypOrco; doxycycline-induced; DPBS with 1 mM probenecid, pH 7.1. In kind it is cell-based.

One may read the EC50 as the midpoint of the concentration-response curve. Consider `CC1=CC(C)(C)C=C(O)C1=O` [lanierone, 2-hydroxy-4,4,6-trimethyl-2,5-cyclohexadien-l-one], for which the EC50 stood at 790 nM.
